Experiments:
[1] = target: T1, human MDM4 protein (amino acids 2-185) (Homo sapiens, UniProt O15151); experiment: p53-MDM4 TR-FRET assay (p53-MDM4 Assay 1); format: binding; settings: 2.5 nM MDM4-biotinylated, 10 nM Cy5-p53 peptide; read-out: IC50 (μM) of p53-Hdm4 inhibition (TR-FRET) Assay 1
T1 construct: human MDM4 protein (amino acids 2-185); made in house
T1 sequence (O15151 2-185): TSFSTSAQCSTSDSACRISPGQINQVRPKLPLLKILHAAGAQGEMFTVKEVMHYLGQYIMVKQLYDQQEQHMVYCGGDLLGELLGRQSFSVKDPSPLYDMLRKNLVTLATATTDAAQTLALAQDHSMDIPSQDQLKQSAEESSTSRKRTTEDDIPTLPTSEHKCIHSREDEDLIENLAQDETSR
In short: (§1)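 Peptide displacement read as 665/620 nm TR-FRET ratio (excitation 340 nm) after 15 min room temperature with 10 nM Cy5-p53 aa18-26, following 15 min preincubation of Eu-streptavidin (0.625 nM) with biotinylated MDM4 aa 2-185 (2.5 nM) or MDM2 aa 2-188 (1.25 nM); IC50 curve-fitted. MDM2 Assay 2: MDM2 and Eu-streptavidin each 0.1 nM.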

[2] = target: T2, human MDM2 protein (amino acids 2-188) (Homo sapiens, UniProt Q00987); experiment: p53-MDM2 TR-FRET assay (p53-MDM2 Assay 1); format: binding; settings: 1.25 nM MDM2-biotinylated, 10 nM Cy5-p53 peptide; read-out: IC50 (μM) of p53-Hdm2 inhibition (TR-FRET) Assay 1
T2 construct: human MDM2 protein (amino acids 2-188); made in house
In short: as §1

T2 sequence (Q00987 2-188): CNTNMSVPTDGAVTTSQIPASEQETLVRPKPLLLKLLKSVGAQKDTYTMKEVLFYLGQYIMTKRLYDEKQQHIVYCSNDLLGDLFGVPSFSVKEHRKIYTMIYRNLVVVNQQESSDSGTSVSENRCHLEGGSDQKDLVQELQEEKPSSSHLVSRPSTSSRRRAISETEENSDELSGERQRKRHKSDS

Row | Compound | IC50 [1] | IC50 [2]
1 | COc1cc2c(cc1OC(C)C)[C@H](c1ccc(Cl)cc1)N(c1ccc(C(C)(O)C3CN(C)C3)cc1)C(=O)C2 (stereo partly drawn) [Example 70, (S)-1-(4-Chloro-phenyl)-2-{4-[1-hydroxy-1-(1-methyl-azetidin-3-yl)-ethyl]-phenyl}-7-isopropoxy-6-methoxy-1,4-dihydro-2H-isoquinolin-3-one] | 60.1 µM | 0.0547 µM
2 | COc1cc2c(cc1OC(C)C)[C@H](c1ccc(Cl)cc1)N(c1ccc(C(C)(O)C3CCN(S(C)(=O)=O)CC3)cc1)C(=O)C2 (stereo partly drawn) [Example 81, (S)-1-(4-Chloro-phenyl)-2-{4-[1-hydroxy-1-(1-methanesulfonyl-piperidin-4-yl)-ethyl]-phenyl}-7-isopropoxy-6-methoxy-1,4-dihydro-2H-isoquinolin-3-one] | 5.11 µM | 0.0057 µM
3 | COc1cc2c(cc1OC(C)C)[C@H](c1ccc(Cl)cc1)N(c1ccc(C(C)(O)c3cn(C)cn3)cc1)C(=O)C2 (stereo partly drawn) [Example 13, (S)-1-(4-Chloro-phenyl)-2-{4-[1-hydroxy-1-(1-methyl-1H-imidazol-4-yl)-ethyl]-phenyl}-7-isopropoxy-6-methoxy-1,4-dihydro-2H-isoquinolin-3-one] | 82.7 µM | 0.0608 µM
4 | CNC(=O)N1CC(O)(c2ccc(N3C(=O)Cc4cc(OC)c(OC(C)C)cc4[C@@H]3c3ccc(Cl)cc3)cc2)C1 [Example 60, 3-{4-[(S)-1-(4-Chloro-phenyl)-7-isopropoxy-6-methoxy-3-oxo-3,4-dihydro-1H-isoquinolin-2-yl]-phenyl}-3-hydroxy-azetidine-1-carboxylic acid methylamide] | 88.4 µM | 0.186 µM
5 | COc1cc(OC)cc(C(C)(O)c2ccc(N3C(=O)Cc4cc(OC)c(OC(C)C)cc4[C@@H]3c3ccc(Cl)cc3)cc2)c1 (stereo partly drawn) [Example 22, (S)-1-(4-Chloro-phenyl)-2-{4-[1-(3,5-dimethoxy-phenyl)-1-hydroxy-ethyl]-phenyl}-7-isopropoxy-6-methoxy-1,4-dihydro-2H-isoquinolin-3-one] | 21.7 µM | 0.0225 µM
6 | COc1cc2c(cc1OC(C)C)[C@H](c1ccc(Cl)cc1)N(c1ccc(C(C)(O)C34CCC(CC3)C4)cc1)C(=O)C2 (stereo partly drawn) [Example 138, (S)-2-[4-(1-Bicyclo[2.2.1]hept-1-yl-1-hydroxy-ethyl)-phenyl]-1-(4-chloro-phenyl)-7-isopropoxy-6-methoxy-1,4-dihydro-2H-isoquinolin-3-one] | 7.54 µM | 0.0062 µM
7 | COc1cc2c(cc1OC(C)C)[C@H](c1ccc(Cl)cc1)N(c1ccc(C(C)(O)C3CN(C4CCCCC4)C3)cc1)C(=O)C2 (stereo partly drawn) [Example 99, (S)-1-(4-Chloro-phenyl)-2-{4-[1-(1-cyclohexyl-azetidin-3-yl)-1-hydroxy-ethyl]-phenyl}-7-isopropoxy-6-methoxy-1,4-dihydro-2H-isoquinolin-3-one] | 24.6 µM | 0.0279 µM
8 | COc1cc2c(cc1OC(C)C)[C@H](c1ccc(Cl)cc1)N(c1ccc(C(C)(O)c3ccncc3)cn1)C(=O)C2 (stereo partly drawn) [Example 12, (S)-1-(4-Chloro-phenyl)-2-[5-(1-hydroxy-1-pyridin-4-yl-ethyl)-pyridin-2-yl]-7-isopropoxy-6-methoxy-1,4-dihydro-2H-isoquinolin-3-one] | 23.9 µM | 0.0195 µM
9 | COc1cc2c(cc1OC(C)C)[C@H](c1ccc(Cl)cc1)N(c1ccc([C@@](C)(O)c3ccc(NC(C)=O)cc3)cc1)C(=O)C2 [Example 26, N-[4-((S)-1-{4-[(S)-1-(4-Chloro-phenyl)-7-isopropoxy-6-methoxy-3-oxo-3,4-dihydro-1H-isoquinolin-2-yl]-phenyl}-1-hydroxy-ethyl)-phenyl]-acetamide] | 8.25 µM | 0.0043 µM
10 | COc1cc2c(cc1OC(C)C)[C@H](c1ccc(Cl)cc1)N(c1ccc([C@](C)(O)C3CCOCC3)cc1)C(=O)C2 (single isomer, unassigned) [Example 33] | 67.8 µM | 0.216 µM
11 | COc1cc2c(cc1OC(C)C)[C@H](c1ccc(Cl)cc1)N(c1ccc([C@@](C)(O)C3CCC(F)(F)CC3)cc1)C(=O)C2 (single isomer, unassigned) [Example 47] | 7.17 µM | 0.005 µM
12 | COc1cc2c(cc1OC(C)C)[C@H](c1ccc(Cl)cc1)N(c1ccc([C@@](C)(O)C3CCOCC3)c(F)c1)C(=O)C2 (single isomer, unassigned) [Example 39] | 1.52 µM | 0.0023 µM
13 | COc1cc2c(cc1OC(C)C)[C@H](c1ccc(Cl)cc1)N(c1ccc(C3(O)CN(C(=O)OC(C)(C)C)C3)cc1)C(=O)C2 [Example 55, 3-{4-[(S)-1-(4-Chloro-phenyl)-7-isopropoxy-6-methoxy-3-oxo-3,4-dihydro-1H-isoquinolin-2-yl]-phenyl}-3-hydroxy-azetidine-1-carboxylic acid tert-butyl ester] | 26.3 µM | 0.0926 µM
14 | COc1cc2c(cc1OC(C)C)[C@H](c1ccc(Cl)cc1)N(c1ccc(C(C)(O)C3CCN(CCC(F)(F)F)CC3)cc1)C(=O)C2 (stereo partly shown) [Example 86] | 6.45 µM | 0.0058 µM
15 | COc1cc2c(cc1OC(C)C)[C@H](c1ccc(Cl)cc1)N(c1ccc(C(C)(O)c3ccc(NC(C)=O)cc3)cn1)C(=O)C2 (stereo partly drawn) [Example 25, N-[4-(1-{6-[(S)-1-(4-Chloro-phenyl)-7-isopropoxy-6-methoxy-3-oxo-3,4-dihydro-1H-isoquinolin-2-yl]-pyridin-3-yl}-1-hydroxy-ethyl)-phenyl]-acetamide] | 19.5 µM | 0.0112 µM
16 | COc1ccc(C(C)(O)c2ccc(N3C(=O)Cc4cc(OC)c(OC(C)C)cc4[C@@H]3c3ccc(Cl)cc3)cc2)cc1 (stereo partly drawn) [Example 5, (S)-1-(4-Chloro-phenyl)-2-{4-[1-hydroxy-1-(4-methoxy-phenyl)-ethyl]-phenyl}-7-isopropoxy-6-methoxy-1,4-dihydro-2H-isoquinolin-3-one] | 10.5 µM | 0.0082 µM
17 | COc1cc2c(cc1OC(C)C)[C@H](c1ccc(Cl)cc1)N(c1ccc([C@](C)(O)C3CCN(C(C)=O)CC3)cc1)C(=O)C2 (single isomer, unassigned) [Example 54] | 36.7 µM | 0.105 µM
18 | COc1cc2c(cc1OC(C)C)[C@H](c1ccc(Cl)cc1)N(c1ccc(C(C)(O)c3cccnc3)cc1)C(=O)C2 (stereo partly drawn) [Example 16, (S)-1-(4-Chloro-phenyl)-2-[4-(1-hydroxy-1-pyridin-3-yl-ethyl)-phenyl]-7-isopropoxy-6-methoxy-1,4-dihydro-2H-isoquinolin-3-one] | 8.42 µM | 0.0058 µM
19 | COc1cc2c(cc1OC(C)C)[C@H](c1ccc(Cl)cc1)N(c1ccc(C(C)(O)C3CN(CC(F)(F)F)C3)cc1)C(=O)C2 (stereo partly drawn) [Example 74, (S)-1-(4-Chloro-phenyl)-2-(4-{1-hydroxy-1-[1-(2,2,2-trifluoro-ethyl)-azetidin-3-yl]-ethyl}-phenyl)-7-isopropoxy-6-methoxy-1,4-dihydro-2H-isoquinolin-3-one] | 18 µM | 0.0179 µM
20 | COc1cc2c(cc1OC(C)C)[C@H](c1ccc(Cl)cc1)N(c1ccc(C(C)(O)C3CC(C)(C)OC(C)(C)C3)cc1)C(=O)C2 (stereo partly shown) [Example 162] | 5.53 µM | 0.0065 µM
21 | COc1cc2c(cc1OC(C)C)[C@H](c1ccc(Cl)cc1)N(c1ccc(C(C)(O)C3CN(CCC(F)(F)F)C3)cc1)C(=O)C2 (stereo partly drawn) [Example 69, (S)-1-(4-Chloro-phenyl)-2-(4-{1-hydroxy-1-[1-(3,3,3-trifluoro-propyl)-azetidin-3-yl]-ethyl}-phenyl)-7-isopropoxy-6-methoxy-1,4-dihydro-2H-isoquinolin-3-one] | 40.5 µM | 0.0363 µM
22 | COc1cc2c(cc1OC(C)C)[C@H](c1ccc(Cl)cc1)N(c1ccc(C(C)(O)C3CC4CCC(C3)S4(=O)=O)cc1)C(=O)C2 (mixture of isomers) [Example 172, (S)-1-(4-Chloro-phenyl)-2-{4-[1-(8,8-dioxo-8-thia-bicyclo[3.2.1]oct-3-yl)-1-hydroxy-ethyl]-phenyl}-7-isopropoxy-6-methoxy-1,4-dihydro-2H-isoquinolin-3-one] | 8.05 µM | 0.0079 µM
23 | CNC(=O)COc1cc2c(cc1OC(C)C)[C@H](c1ccc(Cl)cc1)N(c1ccc(C(C)(O)C3CCOCC3)cc1)C(=O)C2 (stereo partly drawn) [Example 148, 2-((S)-1-(4-Chloro-phenyl)-2-{4-[1-hydroxy-1-(tetrahydro-pyran-4-yl)-ethyl]-phenyl}-7-isopropoxy-3-oxo-1,2,3,4-tetrahydro-isoquinolin-6-yloxy)-N-methyl-acetamide] | 2.64 µM | 0.0067 µM

— patent publication US8859535B2, “Hydroxy substituted isoquinolinone derivatives” (Novartis AG, priority 2011, dated 2014)
